Experiments:
[1] = per 1 gram of water; cited from earlier work
[2] = Complex formation with β-cyclodextrin, association constant (ITC measurements for cetirizine); type: binding; conditions: beta versus alpha and gamma cyclodextrin
Description: Alpha cyclodextrin consists of a ring of 6 glucose units while beta has 7 glucose units in a ring and gamma has 8 glucose units in a ring. The ring structures form a crown. The inside of the crown is able to complex with APIs in the current application. […] Either the phenyl group or the 4-chlorophenyl group fit inside the ring structure. The inside cavity of cylcodextrins is largely hydrophobic, which is favorable for APIs' hydrophobic aromatic systems. The formation of the chelate structure is endothermically favorable due to electrostatic interactions of the pi system of the aromatic moiety with in the hydrophobic cavity and electronic interaction with the hydrogen atoms and glycidyl ether bonds. It is these electronic interactions between these systems of the cyclodextrin and the pi system that gives the favorable heat of formation. […] In one embodiment, the complexing composition consists essentially of beta-cyclodextrin.
Diphenhydramine forms complexes with cylcodextrins. The mechanism is similar to that of cetirizine. […] In one embodiment, the complexing agent comprises beta cyclodextrin, which is configured to form antihistamine complex. In some embodiments, the complexing agent comprises alpha-cyclodextrin, gamma-cyclodextrin, or a combination there. The action of coordination with diphenhydramine is similar to that of cetirizine.

[3] = cited from earlier work
[4] = cited from earlier work; remark: listed apart in the source
[5] = cited from earlier work; remark: listed apart in the source

Row | Structure (SMILES) | amount that dissolves into 1 gram of water [1] | formation constant with beta cyclodextrin relative to alpha and gamma cyclodextrin [2] | association constant K(a) of the complex with α-cyclodextrin [3] [M⁻¹] | association constant K(a) of the complex with β-cyclodextrin [4] [M⁻¹] | association constant K(a) of the complex with γ-cyclodextrin [5] [M⁻¹]
1 | O=C(CO)[C@@H](O)[C@H](O)[C@H](O)CO [fructose] | ~4 grams | – | – | – | –
2 | OC[C@H]1O[C@@](CO)(O[C@H]2O[C@H](CO)[C@@H](O)[C@H](O)[C@H]2O)[C@@H](O)[C@@H]1O [sucrose, O-α-D-glucopyranosyl-(1→2)-β-D-fructofuranoside] | More than 2 grams | – | – | – | –
3 | O=C(O)COCCN1CCN(C(c2ccccc2)c2ccc(Cl)cc2)CC1 (stereo not drawn) [Cetirizine, cetirizine] | – | nearly four times | 1434 ± 60 | 5641 ± 358 | 1200 ± 50

Reference: US20210386732A1, “SEMI-SOLID ANTI-HISTAMINE COMPOSITIONS AND METHODS OF MAKING AND USING THEREOF” (SEATTLE GUMMY COMPANY, priority 2018, published 2021)
